Common to all, as to assay: DTP human tumour cell line panel, 48 h
Assay [1] concerns CAKI-1 renal.
Assay [2] concerns DU-145 prostate.
For assay [3], the system named is HOP-92 NSCLC.
The test system of assay [4] is IGROV1 ovarian.
Assay [5] has as its system KM12 colon.
For assay [6], the system named is MOLT-4 leukemia.
Assay [7] concerns RXF 393 renal.
The subject of assay [8] is SK-MEL-2 melanoma.
Assay [9] concerns UO-31 renal.
Assay [10] deals with RPMI-8226 leukemia.

The structures appear in SMILES notation.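 96-well plates; 48 h exposure; 5 concentrations. Endpoints by linear interpolation between flanking doses. Not reached: highest tested concentration assigned. GI50 = concentration required for 50% inhibition of growth. TGI: total growth inhibition.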

As a reminder, the GI50 is the concentration that inhibits growth by half. Broadly, the TGI is the concentration giving total growth inhibition. Low values mean more potent growth arrest, high ones less potent growth arrest.

Take `CC[C@@]1(OC(=O)CN)C(=O)OCc2c1cc1n(c2=O)Cc2cc3cc(N)ccc3nc2-1`: the concentration for 50% growth inhibition (GI50) is below 0.01 µM in [1]; below 0.01 µM in [2]; below 0.01 µM in assay [3]; 0.0974 µM in [4]; 0.12 µM in assay [5]; below 0.01 µM in assay [6]. In addition, the 50% growth inhibitory concentration (GI50) in assay [7] is 0.044 µM; in [8] it was below 0.0441 µM; in assay [9] it was below 0.0113 µM. Moreover, the TGI in assay [1] was 0.0398 µM; in assay [2], above 76.5 µM; in [3], 0.0705 µM; in assay [4], 1.39 µM; in assay [5], 0.811 µM; in [7], 0.371 µM. The compound further gave a TGI in [8] of 0.421 µM.
For the compound `Cc1ccc(NCSc2ccc(Cl)cc2)cc1`, the GI50 in assay [1] is 5.51 µM; in [2], above 100 µM; in [4] it was 15.3 µM; in assay [5], 9.91 µM; in assay [6] it was 6.15 µM; in assay [10], 2.29 µM. Also, the GI50 was 30.4 µM in assay [7], above 100 µM in assay [8] and 1.65 µM in assay [9]. For the same compound, the TGI in assay [1], in assay [2], in assay [4], in [5], in assay [6] and in [10] was above 100 µM throughout. Moreover, the TGI is above 100 µM in [7], above 100 µM in assay [8] and 30.8 µM in assay [9].
On to `CO[C@H]1C=C[C@]23c4cc5c(cc4CN(CC2O)[C@@H]3C1)OCO5` (stereo not given in full), for which the TGI in assay [1] was above 100 µM; in assay [2], 7.62 µM; in assay [3] it was 2.74 µM; in assay [4], 26 µM; in assay [5], 28.3 µM; in assay [6] it was 8.97 µM. For the same compound, the TGI was above 100 µM in [10], 6.31 µM in assay [8] and 8.47 µM in assay [9].
In the case of `Cc1nn(-c2ccccc2)c2c1C1C(=C(c3ccc(Cl)cc3)N2)C(=O)Nc2ccccc21` (stereo not given), the GI50 is 3.04 µM in [1]; 7.01 µM in [2]; 3.82 µM in assay [4]; 3.6 µM in assay [5]; 2.85 µM in assay [6]; 2.17 µM in assay [10]. Also, the GI50 is 2.19 µM in assay [7], 1.87 µM in assay [8] and 2.86 µM in [9]. For the same compound, the TGI in assay [1] is above 100 µM; in assay [2], above 100 µM; in [4], 60.2 µM; in assay [5] it was 20.8 µM; in assay [6], 8.9 µM; in assay [10] it was 4.77 µM. Besides, the TGI in assay [7] is 6.7 µM; in assay [8] it was 4.29 µM; in assay [9], 30.3 µM.
As to `Cc1ccc([P+](Cc2ccc([N+](=O)[O-])cc2)(c2ccc(C)cc2)c2ccc(C)cc2)cc1`, the GI50 in assay [1] was 18 µM; in assay [2], 5.44 µM; in [4], 2.53 µM; in assay [5], 2.44 µM; in assay [6] it was 5.97 µM; in assay [10] it was 1.02 µM. The GI50 was 5.55 µM in assay [7], 1.96 µM in assay [8] and 13.3 µM in assay [9]. Further, the TGI in [1] is 47.1 µM; in assay [2] it was 20.8 µM; in [4], 14.8 µM; in assay [5], 10.2 µM; in assay [6], 29.3 µM; in assay [10] it was 4.86 µM. Moreover, the TGI in [7] was 20.2 µM; in assay [8] it was 4.51 µM; in assay [9], 31.5 µM.
For `CC(C)(C)n1cc(-c2ccnc(NCCNS(=O)(=O)c3ccc(Br)cc3)c2)c(-c2cccc(O)c2)n1`, the GI50 was 2.17 µM in assay [1]; 2.14 µM in [2]; 1.51 µM in assay [3]; 1.95 µM in assay [4]; 1.99 µM in assay [5]; 1.6 µM in [10]. Moreover, the GI50 was 1.49 µM in [7], 1.93 µM in assay [8] and 1.35 µM in assay [9]. Also, the TGI is 6.07 µM in assay [1]; 4.86 µM in [2]; 3.86 µM in assay [3]; 4.39 µM in [4]; 4.32 µM in assay [5]; 5 µM in assay [10]. The TGI in assay [7] came out at 3.23 µM; in assay [8], 3.99 µM; in assay [9] it was 4.47 µM.
As for `COc1ccc(C2=CC(c3cc(OC)c(OC)c(OC)c3)n3ncnc3N2)cc1` (stereo not given), the 50% growth inhibitory concentration (GI50) in [2] is 0.0648 µM; in assay [3], 11.3 µM; in [4], 0.0912 µM; in assay [5], 0.0402 µM; in [6], 0.171 µM; in assay [10], 0.0439 µM. Moreover, the GI50 in assay [8] is 16.9 µM; in assay [9] it was 10 µM. The TGI is 97.8 µM in [2]; 37.3 µM in assay [3]; 31.1 µM in assay [4]; 18.9 µM in assay [5]; above 100 µM in assay [6]; 81.3 µM in [10]. For the same compound, the figures for the TGI in assay [8] and in [9] were 71.1 µM and 66.4 µM, respectively.
Regarding `CC(CS(=O)(=O)Cc1ccccc1)C(N)=O` (stereo not given), the TGI in assay [1], in assay [2], in assay [3], in assay [4], in assay [5] and in assay [6] was above 100 µM in each case. The total growth inhibition concentration (TGI) in [10], in [8] and in [9] was above 100 µM in each case.
Consider `COc1c(O)c(OC)c(C(=O)/C=C/c2ccccc2)c(O)c1OC`, for which the concentration for total growth inhibition (TGI) in [1] was above 100 µM; in assay [2] it was above 100 µM; in assay [3], 81 µM; in assay [4], above 100 µM; in assay [5], above 100 µM; in assay [6], above 100 µM. Also, the TGI is above 100 µM in assay [10] and 61.2 µM in assay [8].

Values taken from PubChem BioAssay (NCI).
